Assays:
[1] = biological target: T1, AKR1C3 (Homo sapiens, UniProt P42330); experiment: In vitro AKR1C3 activity: production of reduced progesterone (20α-dihydroprogesterone) by LC/MS; assay type: biochemical; settings: reaction 30 min; for AKR1C3 activity % / activity at 5 µM: negative control = 100
T1 sequence (P42330 1-323): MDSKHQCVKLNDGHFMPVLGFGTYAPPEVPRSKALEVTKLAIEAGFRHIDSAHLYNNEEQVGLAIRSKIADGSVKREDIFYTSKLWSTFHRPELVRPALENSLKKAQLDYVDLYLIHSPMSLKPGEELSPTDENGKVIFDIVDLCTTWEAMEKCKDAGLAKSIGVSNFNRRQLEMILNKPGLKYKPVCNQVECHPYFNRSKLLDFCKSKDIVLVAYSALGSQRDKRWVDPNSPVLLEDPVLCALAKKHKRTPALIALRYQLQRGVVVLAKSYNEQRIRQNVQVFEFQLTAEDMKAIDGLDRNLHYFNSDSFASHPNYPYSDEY
Description: Experimental apparatus: Waters Acquity I Class UPLC Ultra Performance Liquid Chromatograph equipped with a Xevo G2-XS Q Tof HRMS Quadrupole Time-of-flight High-Resolution Mass Spectrometer
1. PBS phosphate buffered saline solution,
2. PBS phosphate buffered saline solution of 20 mM NADPH
3. PBS phosphate buffered saline solution of 250 μg/mL AKR1C3
5. 50% MeOH/H2O solution of 250 μM progesterone
6. 100% acetonitrile solution of 1 μg/mL propranolol
In step 1, the reaction mixtures were prepared into Eppendorf tubes in quadruplicate (n=4) according to the table below and mixed gently.
In step 2, the above mixtures were pre-incubated in duplicate at 37° C. for 30 minutes and 60 minutes.
In step 3, another 10 μL of PBS phosphate buffered saline solution of 20 mM NADPH and 2 μL of 50% MeOH/H2O solution of 250 μM progesterone were added to each Eppendorf tube and mixed gently.
In step 4, 50 μL of the mixture in the above step was immediately transferred to 100 μL of 100% acetonitrile solution of 1 μg/mL propranolol (internal standard (IS)).
In step 5, the remaining samples were incubated at 37° C. for 30 minutes, and 100 μL of 100% acetonitrile solution of 1 μg/mL propranolol (internal standard (IS)) was added.
In step 6, 100 μL of reagent water was added to all the samples, vortexed at 1,100 rpm for 5 minutes, and centrifuged at 15,000 rpm for 10 minutes at room temperature.
In step 7, all the samples were loaded on LC/MS to determine the content of reduced progesterone, namely 20α-dihydroprogesterone.
The test conditions for the LC-MS apparatus are shown below
In step 9, the reduced progesterone (20α-dihydroprogesterone) is calculated: the peak area of the reduced progesterone, namely 20α-dihydroprogesterone and propranolol, in each sample was determined by LC/MS. The peak area ratios of reduced progesterone to propranolol (i.e., the ratios in the above table) were calculated, and when the time is 0 the ratio is set to 0%.
AKR1C3 activity (%)=[(the amount of reduced progesterone after normalization of the sample) 30 min−(the amount of reduced progesterone after normalization of the sample) 0 min]/[(the amount of reduced progesterone after normalization of the negative control group) 30 min−(the amount of reduced progesterone after normalization of the negative control group) 0 min]*100.
The AKR1C3 activity results in the above table were calculated according to the above formula.

[2] = system: prostaglandin F2; experiment: Serum prostaglandin F2 by ELISA after single intravenous infusion to cynomolgus monkeys; assay type: in vivo, cynomolgus monkey; settings: for The measured concentration of prostaglandin F2: 1 mg/kg intravenous infusion; for Effect on prostaglandin F2 content (in words): cynomolgus monkeys, after administration (0.58 mg/kg as printed in b199), fluctuating increase at 24 h; for The measured concentration of prostaglandin F2, Mean: mean of 3 animals, before administration 1088.09
Description: (§1) An experiment with three cynomolgus monkeys was performed according to the table below.
(§2) Four male cynomolgus monkeys were purchased from Guangxi Xiongsen Primate Development and Experiment Co., Ltd., and all of them were healthy cynomolgus monkeys that had passed the physical examination and have no abnormalities. Among them, three cynomolgus monkeys were used in the experiment of administration and the remaining one was used for preparing blank plasma.
(§3) Before administration, and 6, 24, 48 and 72 hours after the start of administration, 1 mL of blood was collected from the femoral vein or other suitable vein, and placed in a blood collection tube without anticoagulant. After collected, the blood sample was placed on ice and allowed to stand for 30-60 minutes before being centrifuged at 3,500 rpm for 10 minutes at 2-8° C. to separate the serum. The collected serum was stored at −80° C. before being analyzed.
(§4) Prostaglandins E2 and F2 in serum samples were analyzed by conventional ELISA methods. The measurement results are as follows.
(§5) The concentrations of prostaglandins E2 and F2 in the serum after single administration to cynomolgus monkeys by intravenous infusion

[3] = system: prostaglandin E2; experiment: Serum prostaglandin E2 by ELISA after single intravenous infusion to cynomolgus monkeys; assay type: in vivo, cynomolgus monkey; settings: for The measured concentration of prostaglandin E2: 1 mg/kg intravenous infusion; for The measured concentration of prostaglandin E2, Mean: mean of 3 animals, before administration 469.60
Description: as §1, §2, §3, §4, §5

[4] = 5 μM AST-3424, pre-incubation 30 min at 37° C.
[5] = 5 μM AST-3424, pre-incubation 60 min at 37° C.
[6] = animal 101, 6 h after start of administration
[7] = animal 101, 24 h after start of administration
[8] = animal 101, 48 h after start of administration
[9] = animal 101, 72 h after start of administration
[10] = animal 102, 6 h after start of administration
[11] = animal 102, 24 h after start of administration
[12] = animal 102, 48 h after start of administration
[13] = animal 102, 72 h after start of administration
[14] = animal 103, 6 h after start of administration
[15] = animal 103, 24 h after start of administration
[16] = animal 103, 48 h after start of administration
[17] = animal 103, 72 h after start of administration

- Peak area ratio of reduced progesterone to propranolol ([1]; pre-incubation 30 min, negative control 0.1506): 0.0074
- Peak area ratio of reduced progesterone to propranolol ([1]; pre-incubation 60 min, negative control 0.1343): 0.0137
SMILES: C[C@H](OP(=O)(N1CC1)N1CC1)c1ccc([N+](=O)[O-])c(Oc2cccc(C(=O)N(C)C)c2)c1 [AST-3424]
- AKR1C3 activity % [1, 4]: 3.9%
- activity at 5 µM [1, 4]: 3.9%
- AKR1C3 activity % [1, 5]: 9.2%
- activity at 5 µM [1, 5]: 9.2%
- The measured concentration of prostaglandin F2 [2, 6]: 165.32 pg/mL
- The measured concentration of prostaglandin F2 [2, 7]: 816.63 pg/mL
- The measured concentration of prostaglandin F2 [2, 8]: 183.73 pg/mL
- The measured concentration of prostaglandin F2 [2, 9]: 441.76 pg/mL
- The measured concentration of prostaglandin F2 [2, 10]: 260.80 pg/mL
- The measured concentration of prostaglandin F2 [2, 11]: 3460.25 pg/mL
- The measured concentration of prostaglandin F2 [2, 12]: 216.12 pg/mL
- The measured concentration of prostaglandin F2 [2, 13]: 968.01 pg/mL
- The measured concentration of prostaglandin F2 [2, 14]: 300.65 pg/mL
- The measured concentration of prostaglandin F2 [2, 15]: 4208.19 pg/mL
- The measured concentration of prostaglandin F2 [2, 16]: 541.05 pg/mL
- The measured concentration of prostaglandin F2 [2, 17]: 1369.67 pg/mL
- Effect on prostaglandin F2 content (in words) ([2]; 0.58 mg/kg): greatly reduce the content of PGF2
- Effect on prostaglandin F2 content (in words) ([2]; listed as AST3424, 0.58 mg/kg): decreased
- The measured concentration of prostaglandin F2, Mean ([2]; 6 h): 242.26 pg/mL
- The measured concentration of prostaglandin F2, Mean ([2]; 24 h): 2828.36 pg/mL
- The measured concentration of prostaglandin F2, Mean ([2]; 48 h): 313.63 pg/mL
- The measured concentration of prostaglandin F2, Mean ([2]; 72 h): 926.48 pg/mL
- The measured concentration of prostaglandin E2 [3, 6]: 210.67 pg/mL
- The measured concentration of prostaglandin E2 [3, 7]: 450.48 pg/mL
- The measured concentration of prostaglandin E2 [3, 8]: 322.13 pg/mL
- The measured concentration of prostaglandin E2 [3, 9]: 408.15 pg/mL
- The measured concentration of prostaglandin E2 [3, 10]: 214.73 pg/mL
- The measured concentration of prostaglandin E2 [3, 11]: 822.21 pg/mL
- The measured concentration of prostaglandin E2 [3, 12]: 168.84 pg/mL
- The measured concentration of prostaglandin E2 [3, 13]: 521.78 pg/mL
- The measured concentration of prostaglandin E2 [3, 14]: 670.73 pg/mL
- The measured concentration of prostaglandin E2 [3, 15]: 2735.20 pg/mL
- The measured concentration of prostaglandin E2 [3, 16]: 276.35 pg/mL
- The measured concentration of prostaglandin E2 [3, 17]: 663.03 pg/mL
- Effect on prostaglandin E2 content (in words) ([3]; cynomolgus monkeys, after administration (0.58 mg/kg), fluctuating increase at 24 h): decreased
- The measured concentration of prostaglandin E2, Mean ([3]; 6 h): 365.38 pg/mL
- The measured concentration of prostaglandin E2, Mean ([3]; 24 h): 1335.97 pg/mL
- The measured concentration of prostaglandin E2, Mean ([3]; 48 h): 255.78 pg/mL
- The measured concentration of prostaglandin E2, Mean ([3]; 72 h): 530.99 pg/mL
